Structures are written as SMILES.

Experimental findings from US20040213755A1, “Compositions and methods for reducing odor” (priority 2000, published 2004) are described below.

A short description of assay [1]: GC headspace analysis of odor emitting compound. The following applies: 500 μL of 0.1% solution in water; % of control; 0% = complete removal.
Experimental: (§1) The first odor reducing composition of the invention was 89% L-aspartic acid, 1% ZnO, and 10% Smellrite® zeolite (Invention #1). The second odor reducing composition of the invention was 88% L-aspartic acid, 2% ZnO, and 10% Smellrite® zeolite (Invention #2). The odor emitting compounds were tested neat, and triethylamine (0.1%), dimethylsulfide (0.1%), and isovaleric acid (0.82%) were also tested as solutions in water.
(§2) In the tests using the water solutions of the odor emitting compounds, 500 μL of the solutions were used for all samples.
(§3) Samples were prepared using 20 mL serum bottles with septum caps, and gas tight syringes were used to sample the headspace in the serum bottles. The sample was weighed into the serum bottle, the odor emitting compounds were added, and the sample bottles capped. The sample and the odor emitting compound in the serum bottle was mixed in each case. The serum bottle was then allowed to stand for 30 minutes and a 100 μL sample was taken from headspace of the serum bottle using a gas tight syringe and then injected into a gas chromatograph (GC) for analysis.
(§4) The GC analysis was performed using a H—P 5890-11 GC with a FID detector and a Split/Splitless injector, and a H—P 3396 integrator. The column used was a capillary H—P Ultra-2 (50 m×0.32 mm×0.52 μm). The GC conditions used were: injector temperature=300° C., detector temperature=330° C., oven temperature program=70° C. initial hold for 4 min., raise temperature 7° C./min. to 235° C., hold at 235° C. for 4 min. with total run length of 31.6 min. The split was turned off at injection and turned on after 30 seconds.
(§5) Complete removal of odor is represented as 0% and the control is 100%.
Assay [2] can be described thus: GC headspace analysis of odor emitting compound. The following applies: 500 μL of 0.82% solution in water; % of control; 0% = complete removal.
Experimental: as §1, §2, §3, §4, §5
Assay [3] is described as follows: GC headspace analysis of odor emitting compound. The following applies: 500 μL of 0.1% solution in water; % of control; 0% = complete removal. This is another data set of the same source.
Experimental: as §1, §2, §3, §4, §5

Take `[O]=[Zn]` [Zinc oxide, zinc oxide]: the “% Odor, Triethylamine (0.1% in water)” value in assay [1] came out at 79.3%. For the same compound, the “% Odor, Isovaleric acid (0.82% in water)” value in assay [2] was 0%. In addition, the “% Odor, Dimethylsulfide (0.1% in water)” value in assay [3] stood at 96.4%.

Regarding `O=C([O-])O.[Na+]` [Baking soda, sodium bicarbonate], the “% Odor, Triethylamine (0.1% in water)” value in assay [1] came to 19.%. Besides, the “% Odor, Isovaleric acid (0.82% in water)” value in assay [2] worked out at 8.7%. Further, the “% Odor, Dimethylsulfide (0.1% in water)” value in assay [3] turned out to be 93.6%.

In the case of `N[C@@H](CC(=O)O)C(=O)O` [L-aspartic acid], the “% Odor, Triethylamine (0.1% in water)” value in assay [1] was found to be 0%. The “% Odor, Isovaleric acid (0.82% in water)” value in assay [2] was found to be 13.9%. Also, the “% Odor, Dimethylsulfide (0.1% in water)” value in assay [3] came to 82.2%.
